Test [1] deals with B. thailandensis (E264). The settings on record: pH 7.4.
Test [2] has as its system B. thailandensis biofilm. In kind it is cell-based, Burkholderia thailandensis.
Test [3] relates to B. thailandensis E264 pre-formed biofilm. It is filed as cell-based, Burkholderia thailandensis. The following applies: n = 8.
Test [4] deals with multiple Burkholderia species. The settings on record: cited from earlier work.
The test system of test [5] is B. pseudomallei. The following applies: cited from earlier work.

≈ marks a conversion by molar mass, not a printed value. Entries after “also recorded” stand apart in the source; their conditions may differ. Where a SMILES comes first, the peptide text is derived from it. Where no end group is shown, it is not given here. [ ]: non-standard residue; d: D form. Some results are limits rather than exact numbers.

Take `CC(C)C[C@@H](NC(=O)[C@@H](CCCCN)NC(=O)[C@@H](CCCCN)NC(=O)[C@@H](Cc1ccccc1)NC(=O)[C@@H](Cc1ccccc1)NC(=O)[C@@H](CCCCN)NC(=O)[C@@H](CCCCN)NC(=O)[C@@H](C)NC(=O)[C@@H](CCCNC(=N)N)NC(=O)[C@H](N)CCCCN)C(=O)N[C@H](CCCCN)C(N)=O` [D-ATRA-1A] (H-[dK][dR][dA][dK][dK][dF][dF][dK][dK][dL][dK]-NH2; N-terminus and C-terminus assumed): in test [1] (3 h), it took 4.82 µM to reach a half-maximal effect (EC50) and the “EC50 (μg/ml)” value came to 6.86 µg/mL (≈ 4.83 µM). For the same compound, the “biofilm inhibition” value in test [2] is listed as “did slightly, but only at the highest concentration of peptide tested (300 μg/ml); also recorded: Minimal biofilm inhibition”. In test [3], the “dispersion of pre-formed biofilm” value is given as “no biofilm dispersion activity”.

For HNP-3, the “antimicrobial activity / whether an EC50 could be determined” value in test [1] is “could not be calculated because the peptide was ineffective”.

Regarding “GLKLRFEFSKIKGEFLKTPEVRFRDIKLKDNRISVQR [Scrambled LL-37]”, in test [2], the “biofilm inhibition” value is recorded as “did not inhibit biofilm; also recorded: did not show biofilm inhibition”.

Take RGRKSSRRKK [Peptide 4 of hBD-3]: in test [1], the “antimicrobial activity / whether an EC50 could be determined” value is “could not be calculated because the peptide was ineffective” and the “killing of B. thailandensis at highest concentration tested” value was 65%.

With KRAKKFFKKPK [ATRA-2], the “biofilm inhibition” value in test [2] is given as “did not inhibit biofilm formation; also recorded: not biofilm inhibition”. For the same compound, in test [3], the “dispersion of pre-formed biofilm” value is given as “no biofilm dispersion activity”.

Regarding `CC(C)(O/N=C(\C(=O)N[C@@H]1C(=O)N2C(C(=O)[O-])=C(C[n+]3ccccc3)CS[C@H]12)c1csc(N)n1)C(=O)O` [Ceftazidime], in test [2], the “biofilm inhibition” value is “did not inhibit biofilm production; also recorded: did not show biofilm inhibition”.

Consider KRFKKFFKKLK [ATRA-1], for which, in test [1] (3 h), the EC50 (usually the concentration needed to bring the measured effect to its halfway point) was 6.94 µM.

As for “hBD-3 (GIINTLQKYYCRVRGGRCAVLSCLPKEEQIGKCSTRGRKCCRRKK; ends and bridges not checked; cysteine pairing not given here; UniProt P81534 23-67, looked up)”, the “LD50 against multiple Burkholderia species” value in test [4] is more than 100 µg/mL.

Take KRAKKFFKKLK-NH2 [ATRA-1A]: in test [1] (3 h), the EC50 was found to be 9.83 µM.

For bactenecin, in test [5], the “antimicrobial activity against B. pseudomallei” value was “antimicrobial against B. pseudomallei”.

Consider “HNP-4 (VCSCRLVFCRRTELRVGNCLIGGVSFTYCCTRV; ends and bridges not checked; cysteine pairing not given here; UniProt P12838 64-96, looked up)”, for which the “antimicrobial activity / whether an EC50 could be determined” value in test [1] is listed as “could not be calculated because the peptide was ineffective”.

The record behind these values is paper PMC4510350 (PLoS Neglected Tropical Diseases, 2015).
